Measured values as given in patent US8466113B2, “4-isopropylphenyl glucitol compounds as SGLT1 inhibitors” (Taisho Pharmaceutical Co., Ltd., priority 2009, dated 2013).

target: T1, human SGLT2 (Homo sapiens, UniProt P31639); assay: Inhibition test for sodium-dependent sugar uptake in CHO-K1 cells stably expressing human SGLT2, Method B; type: cell-based; details: uptake 37° C., 60 minutes, read-out: IC50 for hSGLT2 Method B
T1 construct: expressed in transfected cells; host or cells: CHO-K1
T1 sequence (P31639 1-672): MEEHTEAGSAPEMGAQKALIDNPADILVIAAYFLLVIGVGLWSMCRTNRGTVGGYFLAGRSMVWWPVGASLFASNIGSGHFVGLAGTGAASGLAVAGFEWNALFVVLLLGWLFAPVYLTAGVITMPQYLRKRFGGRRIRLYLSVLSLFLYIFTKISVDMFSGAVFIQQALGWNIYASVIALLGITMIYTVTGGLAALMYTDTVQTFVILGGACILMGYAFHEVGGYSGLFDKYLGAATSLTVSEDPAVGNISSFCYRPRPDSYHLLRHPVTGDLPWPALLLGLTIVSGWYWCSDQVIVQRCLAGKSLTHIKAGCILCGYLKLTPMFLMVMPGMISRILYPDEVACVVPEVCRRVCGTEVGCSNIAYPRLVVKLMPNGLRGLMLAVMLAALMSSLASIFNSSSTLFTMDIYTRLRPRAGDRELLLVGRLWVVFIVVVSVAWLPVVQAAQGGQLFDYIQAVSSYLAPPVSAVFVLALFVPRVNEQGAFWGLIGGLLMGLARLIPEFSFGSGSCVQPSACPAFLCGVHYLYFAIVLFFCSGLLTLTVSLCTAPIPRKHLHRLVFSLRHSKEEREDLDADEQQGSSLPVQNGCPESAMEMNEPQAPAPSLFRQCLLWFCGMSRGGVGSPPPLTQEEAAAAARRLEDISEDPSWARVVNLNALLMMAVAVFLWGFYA
Procedure: (2) Creation of CHO-K1 Cells Stably Expressing Human SGLT2
Method B: A plasmid vector expressing human SGLT2 protein was transfected into CHO-K1 cells using lipofectamine LTX (Invitrogen). The cells were cultured in the presence of 1000 μg/mL geneticin to select resistant strains, followed by screening in the system shown below using sugar uptake capacity as an indicator to obtain SGLT2-expressing cells.
(3) Inhibition Test for Sodium-Dependent Sugar Uptake in Stably Expressing Cells
The stably expressing cells prepared above were used in the following test.
Pretreatment buffer (140 mM choline chloride, 2 mM KCl, 1 mM CaCl2, 1 mM MgCl2, 10 mM HEPES/5 mM Tris, pH 7.4) was added in a volume of 200 μL to the cells stably expressing SGLT1 or 2 mL for Method A and 200 μL for Method B to the cells stably expressing SGLT2, followed by incubation for 20 minutes. The pretreatment buffer was removed and replaced by uptake buffer containing a test compound (1 mM methyl α-D-glucopyranoside (containing [^14C]methyl α-D-glucopyranoside), 140 mM NaCl, 2 mM KCl, 1 mM CaCl2, 1 mM MgCl2, 10 mM HEPES/5 mM Tris, pH 7.4) in a volume of 75 μL for SGLT1 and SGLT2 in Method B or 200 μL for SGLT2 in Method A. Uptake reaction was performed at 37° C. for 30 minutes (SGLT1) or 60 minutes (SGLT2). After the reaction, the cells were washed twice with washing buffer (10 mM methyl α-D-glucopyranoside, 140 mM choline chloride, 2 mM KCl, 1 mM CaCl2, 1 mM MgCl2, 10 mM HEPES/5 mM Tris, pH 7.4) in a volume of 200 μL for SGLT1 and SGLT2 in Method B or 2 mL for SGLT2 in Method A, and then dissolved in a 0.25 M NaOH solution (75 μL for SGLT1 and SGLT2 in Method B or 400 μL for SGLT2 in Method A). A liquid scintillator (Perkin Elmer) was added and mixed well with each sample, followed by measurement of radioactivity using a β-ray analyzer. For the control group, uptake buffer containing no test compound was prepared. Moreover, another uptake buffer containing choline chloride instead of NaCl was also prepared for basal uptake.
For determination of IC50 values, test compounds prepared at 6 appropriate concentrations were used and their concentrations required for 50% inhibition of the amount of sugar uptake (IC50 values) were calculated relative to the amount of sugar uptake in the control group (100%).

IC50 [nM] | Compound
64 | Cc1cc(/C=C/C(C)(C)C(=O)NC(C)(C)C(=O)NCC(C)(C)N)ccc1Cc1cc([C@@H]2O[C@H](CO)[C@@H](O)[C@H](O)[C@H]2O)c(O)cc1C(C)C [Example 6-2]
74 | Cc1cc(/C=C/C(C)(C)C(=O)NC(C)(C)C(=O)NCCN(C)C)ccc1Cc1cc([C@@H]2O[C@H](CO)[C@@H](O)[C@H](O)[C@H]2O)c(O)cc1C(C)C [Example 1-2]
30 | Cc1cc(/C=C/C(C)(C)C(=O)NC(C)(C)C(=O)N2CCC(N(C)C)CC2)ccc1Cc1cc([C@@H]2O[C@H](CO)[C@@H](O)[C@H](O)[C@H]2O)c(O)cc1C(C)C [Example 5-2]
20 | COc1cc(C(C)C)c(Cc2ccc(/C=C/C(C)(C)C(=O)NC(C)(C)C(=O)NCCN(C)C)cc2)cc1[C@@H]1O[C@H](CO)[C@@H](O)[C@H](O)[C@H]1O [Example 15-2]
322 | COc1cc(C(C)C)c(Cc2ccc(/C=C/C(C)(C)C(=O)NC(C)(C)C(=O)NCC(C)(C)N)cc2C)cc1[C@@H]1O[C@H](CO)[C@@H](O)[C@H](O)[C@H]1O [Example 13-2]
